Laboratory results: paper PMC12648313, “Enhancing the Efficacy, Utility, and Throughput of the Transcription Block Survival Peptide Library Screening Platform” (JACS Au, 2025)

Experiments:
ATF2 bZIP-CRE DNA = assay: TBS peptide library screening, competition selection; format: cell-based, human ATF2 bZIP, in E. coli BL21-Gold; conditions: 11.3-million-member library; nine rounds of selection; 9xCRE mDHFR; selective M9, 37 °C
Text: This validates the new TBS design for the introduction of a transcriptional block and for the ability of antagonist peptides to restore bacterial growth in the CRE/CREB systems. We next constructed an 11.3-million-member peptide library to identify antagonists of ATF2, representing the first such effort to target this TF. This library design includes an N-terminal acidic domain, developed by Vinson and coworkers to engage bZIP DNA-binding domains (DBDs), followed by a semirandomized LZ region. Canonical coiled coil heptad repeat e and g positions were semirandomized to include glu, gln or lys options, with two exceptions to increase library diversity: e7 (ile, asn, asp or val) and g8 (leu, gln, glu or val). The a positions were randomized to select from leu, ile or val, to optimize hydrophobic packing in the coiled coil core, except a6 which also included asn or asp to investigate potential core polar interactions. The d positions were fixed as leu to promote formation of a desired parallel, dimeric coiled coil. […]
colonies: E = […] where E is the percentage of the library missing, m is the number of colonies collected and n is the library size. Library DNA quality was assessed by sequencing both the DNA pool and a number of single colonies to show degenerate codons in the correct positions in the pool and to show a diversity of library members from single […]

ATF2 [1] = target: T1, ATF2 (Homo sapiens, UniProt P15336); assay: CD thermal denaturation, ATF2/ATF2W mixture; format: binding
T1 construct: human ATF2 bZIP domain spans from Asp352 to Gln410; made in house; host or cells: chemical synthesis (Fmoc solid-phase peptide synthesis), no expression host
T1 sequence (P15336 352-410): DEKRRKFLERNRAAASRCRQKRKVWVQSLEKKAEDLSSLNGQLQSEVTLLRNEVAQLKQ
Text: (§1) removed before peptide concentration determination.
(§2) Peptide samples were suspended in 20

ATF2 [2] = target: T1, ATF2; assay: Isothermal titration calorimetry; format: binding; conditions: 20 °C, pH 7.4, average of three independent experiments ± SD
Text: 5 Biophysical characterization of the ATF2-ATF2W interaction. (A) CD spectra of ATF2 and ATF2W indicating an increase in helicity upon mixture of the two components, indicative of the formation of a heterodimeric coiled coil. (B) CD thermal denaturation experiment indicates a T m shift upon mixture of ATF2/ATF2W, supporting the formation of a stable heterodimer. The “average” CD trace in A and B represents an averaged value of the two unbound components which would be the trace for no interaction. (C) ITC data for ATF2W (50 μM) titrated into ATF2 (5 μM) at 20 °C. The raw power compensation plot is shown in the upper graph and the integrated data points and single site model fitted line are shown in the lower graph. […] ATF2W is selective for ATF2, with a ∼ 3-fold reduction in antagonism for CREB1/CRE and cJun/TRE despite high structural and sequence homology. […]
as §1, §2
Post-melt scans at 20°C confirmed the
Sequential 2 µL injections of ATF2W (50 µM)
Data from a control experiment whereby […]
errors are given as one standard deviation.
Fluorescence polarisation: Fluorescence polarisation was measured in a CLARIOstar

Substance: Ac-LEQQLEELAQENEELEKEAAELQQQIARLKNEVAKLENENKTLDREIKALQREYSHKSD-NH2 [ATF2W]
- outcome of TBS selection (ATF2 bZIP-CRE DNA): single dominant hit
- ΔTm relative to ATF2W alone (ATF2 [1]; heterodimeric ATF2/ATF2W sample vs ATF2W alone): 18 °C
- Tm (ATF2 [1]; heterodimeric ATF2/ATF2W sample, 222 nm, 1 to 95 °C, pH 7.4, 10 mM TCEP.HCl, two-state model): 55 °C
- Kd (ATF2 [2]; ATF2W (50 μM) titrated into ATF2 (5 μM), 50 mM potassium phosphate, 150 mM NaCl, 10 mM TCEP, one-site model): 114 ± 21 nM
- -TΔS (ATF2 [2]; ITC): 40 ± 4 kJ mol^–1
- N (stoichiometry) (ATF2 [2]; ITC): 0.99 ± 0.01
- ΔH (ATF2 [2]; ITC): −79 ± 3 kJ mol^–1
